Assay results from PubChem BioAssay AID248 (DTP/NCI, 2004).
Several values for one entry are separate records, joined by “and”; a condition that tells them apart may be missing. Equal values may be shown once. Toxic doses and inconclusive results are not listed.

Test system: L1210 leukemia ip in BDF1 mice, survival T/C
Assay: NCI In Vivo Anticancer Drug Screen. Data for tumor model L1210 Leukemia (intraperitoneal) in B6D2F1 (BDF1) mice
Settings: higher = longer survival
Procedure, shortened: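 Ratio derived from survival: compound-dosed mice over vehicle-dosed mice, all bearing a transplantable tumor.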

OC(C1CO1)C(O)C1CO1 (centres undefined)
T/C (endpoint: mean survival time, dose: 0.25 mg/kg/injection, schedule: Q03HX008 (ip), vehicle: saline): 106 % of control | T/C (endpoint: mean survival time, dose: 0.35 mg/kg/injection, schedule: Q01DX009 (ip), vehicle: saline): 94 % of control | T/C (endpoint: mean survival time, dose: 0.5 mg/kg/injection, schedule: Q01DX009 (ip), vehicle: saline): 104 % of control | T/C (endpoint: mean survival time, dose: 0.5 mg/kg/injection, schedule: Q03HX008 (ip), vehicle: saline): 115 % of control | T/C (endpoint: mean survival time, dose: 0.52 mg/kg/injection, schedule: Q01DX009 (ip), vehicle: saline): 97 % of control | T/C (endpoint: mean survival time, dose: 0.61 mg/kg/injection, schedule: Q04DX003 (ip), vehicle: saline): 104 % of control | T/C (endpoint: mean survival time, dose: 0.65 mg/kg/injection, schedule: Q01DX009 (ip), vehicle: water): 110 % of control | T/C (endpoint: mean survival time, dose: 0.96 mg/kg/injection, schedule: Q01DX001 (ip), vehicle: saline): 119 % of control | T/C (endpoint: mean survival time, dose: 1.0 mg/kg/injection, schedule: Q01DX009 (sc), vehicle: saline): 121 % of control | T/C (endpoint: mean survival time, dose: 1.0 mg/kg/injection, schedule: Q03HX016 (ip), vehicle: saline): 160 % of control | T/C (endpoint: mean survival time, dose: 1.0 mg/kg/injection, schedule: Q03HX024 (ip), vehicle: saline): 170 % of control | T/C (endpoint: mean survival time, dose: 1.0 mg/kg/injection, schedule: Q04DX003 (ip), vehicle: saline): 110 % of control and 116 % of control | T/C (endpoint: mean survival time, dose: 1.25 mg/kg/injection, schedule: Q04DX003 (ip), vehicle: saline): 104 % of control | T/C (endpoint: mean survival time, dose: 1.3 mg/kg/injection, schedule: Q01DX009 (ip), vehicle: saline): 175 % of control | T/C (endpoint: mean survival time, dose: 1.4 mg/kg/injection, schedule: Q01DX001 (ip), vehicle: saline): 119 % of control | T/C (endpoint: mean survival time, dose: 1.4 mg/kg/injection, schedule: Q01DX009 (ip), vehicle: saline): 184 % of control | T/C (endpoint: mean survival time, dose: 1.6 mg/kg/injection, schedule: Q01DX009 (ip), vehicle: water): 102 % of control | T/C (endpoint: mean survival time, dose: 1.87 mg/kg/injection, schedule: Q01DX001 (ip), vehicle: saline): 110 % of control | T/C (endpoint: mean survival time, dose: 2.0 mg/kg/injection, schedule: Q01DX001 (ip), vehicle: saline): 116 % of control | T/C (endpoint: mean survival time, dose: 2.0 mg/kg/injection, schedule: Q03HX008 (ip), vehicle: saline): 227 % of control | T/C (endpoint: mean survival time, dose: 2.0 mg/kg/injection, schedule: Q03HX016 (ip), vehicle: saline): 218 % of control | T/C (endpoint: mean survival time, dose: 2.0 mg/kg/injection, schedule: Q03HX024 (ip), vehicle: saline): 105 % of control | T/C (endpoint: mean survival time, dose: 2.0 mg/kg/injection, schedule: Q04DX003 (ip), vehicle: saline): 123 % of control | T/C (endpoint: mean survival time, dose: 2.0 mg/kg/injection, schedule: Q08DX002 (ip), vehicle: saline): 113 % of control | T/C (endpoint: mean survival time, dose: 2.5 mg/kg/injection, schedule: Q01DX009 (ip), vehicle: saline): 118 % of control | T/C (endpoint: mean survival time, dose: 2.5 mg/kg/injection, schedule: Q04DX003 (ip), vehicle: saline): 105 % of control and 115 % of control | T/C (endpoint: mean survival time, dose: 3.0 mg/kg/injection, schedule: Q01DX009 (ip), vehicle: saline): 163 % of control and 186 % of control and 193 % of control | T/C (endpoint: mean survival time, dose: 3.0 mg/kg/injection, schedule: Q01DX009 (ip), vehicle: water): 224 % of control | T/C (endpoint: mean survival time, dose: 3.2 mg/kg/injection, schedule: Q01DX009 (ip), vehicle: saline): 120 % of control | T/C (endpoint: mean survival time, dose: 3.3 mg/kg/injection, schedule: Q01DX001 (ip), vehicle: saline): 154 % of control | T/C (endpoint: mean survival time, dose: 3.75 mg/kg/injection, schedule: Q01DX001 (ip), vehicle: saline): 118 % of control | T/C (endpoint: mean survival time, dose: 4.0 mg/kg/injection, schedule: Q01DX001 (sc), vehicle: saline): 115 % of control | T/C (endpoint: mean survival time, dose: 4.0 mg/kg/injection, schedule: Q01DX009 (ip), vehicle: saline): 160 % of control | T/C (endpoint: mean survival time, dose: 4.0 mg/kg/injection, schedule: Q04DX003 (ip), vehicle: saline): 168 % of control and 170 % of control and 198 % of control | T/C (endpoint: mean survival time, dose: 4.0 mg/kg/injection, schedule: Q08DX002 (ip), vehicle: saline): 155 % of control | T/C (endpoint: mean survival time, dose: 4.6 mg/kg/injection, schedule: Q01DX001 (ip), vehicle: saline): 113 % of control | T/C (endpoint: mean survival time, dose: 4.6 mg/kg/injection, schedule: Q01DX009 (ip), vehicle: saline): 89 % of control | T/C (endpoint: mean survival time, dose: 4.6 mg/kg/injection, schedule: Q04DX003 (ip), vehicle: saline): 242 % of control and 112 % of control | T/C (endpoint: mean survival time, dose: 4.6 mg/kg/injection, schedule: Q08DX002 (ip), vehicle: saline): 163 % of control | T/C (endpoint: mean survival time, dose: 5.0 mg/kg/injection, schedule: Q01DX001 (ip), vehicle: saline): 214 % of control | T/C (endpoint: mean survival time, dose: 5.0 mg/kg/injection, schedule: Q01DX009 (ip), vehicle: saline): 95 % of control and 204 % of control and 255 % of control | T/C (endpoint: mean survival time, dose: 5.0 mg/kg/injection, schedule: Q01DX009 (ip), vehicle: water): 108 % of control | T/C (endpoint: mean survival time, dose: 5.0 mg/kg/injection, schedule: Q04DX003 (ip), vehicle: saline): 124 % of control | T/C (endpoint: mean survival time, dose: 6.7 mg/kg/injection, schedule: Q04DX003 (ip), vehicle: saline): 195 % of control and 227 % of control | T/C (endpoint: mean survival time, dose: 7.0 mg/kg/injection, schedule: Q01DX001 (ip), vehicle: saline): 157 % of control and 240 % of control and 117 % of control | T/C (endpoint: mean survival time, dose: 7.0 mg/kg/injection, schedule: Q01DX009 (ip), vehicle: saline): 97 % of control and 115 % of control | T/C (endpoint: mean survival time, dose: 7.0 mg/kg/injection, schedule: Q04DX003 (ip), vehicle: saline): 284 % of control and 122 % of control | T/C (endpoint: mean survival time, dose: 7.0 mg/kg/injection, schedule: Q08DX002 (ip), vehicle: saline): 191 % of control | T/C (endpoint: mean survival time, dose: 7.5 mg/kg/injection, schedule: Q01DX001 (ip), vehicle: saline): 185 % of control | T/C (endpoint: mean survival time, dose: 7.5 mg/kg/injection, schedule: Q01DX009 (ip), vehicle: saline): 169 % of control | T/C (endpoint: mean survival time, dose: 8.0 mg/kg/injection, schedule: Q01DX001 (ip), vehicle: saline): 158 % of control | T/C (endpoint: mean survival time, dose: 8.0 mg/kg/injection, schedule: Q01DX001 (oral), vehicle: saline): 200 % of control | T/C (endpoint: mean survival time, dose: 8.0 mg/kg/injection, schedule: Q04DX003 (ip), vehicle: saline): 300 % of control and 304 % of control | T/C (endpoint: mean survival time, dose: 8.0 mg/kg/injection, schedule: Q08DX002 (ip), vehicle: saline): 193 % of control | T/C (endpoint: mean survival time, dose: 10.0 mg/kg/injection, schedule: Q01DX009 (ip), vehicle: saline): 88 % of control | T/C (endpoint: mean survival time, dose: 10.0 mg/kg/injection, schedule: Q04DX003 (ip), vehicle: saline): 404 % of control and 448 % of control and 471 % of control | T/C (endpoint: mean survival time, dose: 10.6 mg/kg/injection, schedule: Q01DX001 (ip), vehicle: saline): 308 % of control and 105 % of control | T/C (endpoint: mean survival time, dose: 11.25 mg/kg/injection, schedule: Q01DX009 (ip), vehicle: saline): 91 % of control | T/C (endpoint: mean survival time, dose: 12.5 mg/kg/injection, schedule: Q01DX009 (ip), vehicle: saline): 110 % of control | T/C (endpoint: mean survival time, dose: 15.0 mg/kg/injection, schedule: Q04DX003 (ip), vehicle: saline): 161 % of control and 172 % of control and 368 % of control | T/C (endpoint: mean survival time, dose: 16.0 mg/kg/injection, schedule: Q01DX001 (ip), vehicle: saline): 368 % of control | T/C (endpoint: mean survival time, dose: 16.0 mg/kg/injection, schedule: Q01DX001 (sc), vehicle: saline): 180 % of control | T/C (endpoint: mean survival time, dose: 24.0 mg/kg/injection, schedule: Q04DX003 (ip), vehicle: saline): 191 % of control | T/C (endpoint: mean survival time, dose: 64.0 mg/kg/injection, schedule: Q01DX001 (ip), vehicle: saline): 97 % of control | T/C (endpoint: mean survival time, dose: 118.0 mg/kg/injection, schedule: Q08DX002 (ip), vehicle: saline): 105 % of control | T/C (endpoint: median survival time, dose: 1.0 mg/kg/injection, schedule: Q01DX009 (sc), vehicle: water): 111 % of control | T/C (endpoint: median survival time, dose: 2.0 mg/kg/injection, schedule: Q01DX009 (ip), vehicle: water): 188 % of control | T/C (endpoint: median survival time, dose: 2.0 mg/kg/injection, schedule: Q04DX003 (ip), vehicle: water): 122 % of control | T/C (endpoint: median survival time, dose: 2.0 mg/kg/injection, schedule: Q04DX003 (sc), vehicle: water): 111 % of control | T/C (endpoint: median survival time, dose: 2.5 mg/kg/injection, schedule: Q01DX001 (ip), vehicle: water): 122 % of control | T/C (endpoint: median survival time, dose: 4.0 mg/kg/injection, schedule: Q01DX009 (ip), vehicle: water): 116 % of control | T/C (endpoint: median survival time, dose: 4.0 mg/kg/injection, schedule: Q01DX009 (sc), vehicle: water): 105 % of control | T/C (endpoint: median survival time, dose: 4.0 mg/kg/injection, schedule: Q04DX003 (ip), vehicle: water): 166 % of control | T/C (endpoint: median survival time, dose: 4.0 mg/kg/injection, schedule: Q04DX003 (sc), vehicle: water): 155 % of control | T/C (endpoint: median survival time, dose: 8.0 mg/kg/injection, schedule: Q04DX003 (ip), vehicle: water): 94 % of control | T/C (endpoint: median survival time, dose: 8.0 mg/kg/injection, schedule: Q04DX003 (sc), vehicle: water): 100 % of control | T/C (endpoint: median survival time, dose: 10.0 mg/kg/injection, schedule: Q01DX001 (ip), vehicle: water): 154 % of control | T/C (endpoint: median survival time, dose: 20.0 mg/kg/injection, schedule: Q01DX001 (ip), vehicle: water): 103 % of control | T/C (endpoint: median survival time, dose: 40.0 mg/kg/injection, schedule: Q01DX001 (ip), vehicle: water): 99 % of control
